Laboratory results: paper PMC7876453, “Targeting Indoleamine 2,3-Dioxygenase in Cancer Models Using the Novel Small Molecule Inhibitor NTRC 3883-0” (Frontiers in Immunology, 2021)
pIC50: −log10 of the molar value. Like-named read-outs stand apart in the source and are kept apart here.

Key:
[1] = molecular target: T1, SW48 (hTDO) (Homo sapiens, UniProt P48775); assay: cell-based assay, Trp-catabolizing activity in SW48 cells
T1 construct: host or cells: SW48 cells

[2] = test system: IFNγ-stimulated adherent cell samples isolated from ascites of ovarian cancer patients; assay: Trp-catabolizing activity in IFNγ-stimulated ascites cell samples; type: cell-based; settings: Homo sapiens
Description: Ascites was collected from patients with a primary diagnosis of advanced epithelial ovarian cancer during paracentesis for diagnostics or symptom relieve, or during primary debulking surgery. Ascites was filtered and cells were collected by centrifugation as described ([23]). To enrich for tumor cells, ascites cell samples were allowed to adhere overnight to tissue culture plastic. The cell samples were then cultured for 2–3 weeks in advanced RPMI medium (ThermoFisher), supplemented with 10% FBS, 1% glutamax and 1% P/S, with 2 or 3 times passaging of the cells. qPCR analyses of the MUC16, HE4, IDO1, and TDO2 genes were performed for all samples as described above. Five samples which could be cultured over multiple passages were analyzed for cell surface expression of mucin-16 and EpCAM by flow cytometry using FITC-conjugated anti-mucin-16 (AssayPro, #32189-05141) and APC-conjugated anti-EpCAM (Miltenyi, #130-111-117, RRID: AB_2657496) to assure that the cell cultures consisted of malignant cells. IDO1 mRNA and protein levels in these samples were analyzed as described above after incubation with or without 200 ng/ml IFNγ for 24 h. The collection of ascites and the research described was conducted with approval of the medical ethical committee of the Radboud university medical center and informed written consent from each subject.

[3] = plasma protein binding, human; type: in vitro ADME; settings: column Human (predicted)
Description: (§1) Supplement DataSheet_1.docx, table 2: Table S2. Pharmacokinetic parameters of NTRC 3883-0 observed in mouse, rat, monkey and dog, and predicted for humans using allometric scaling. Data in bold are measured, while data in italics are calculated or predicted (for humans). The clearance (Cl) and volume of distribution at steady state (Vss | column: Human (predicted)

[4] = human pharmacokinetics predicted by allometric scaling; settings: predicted parameters, assuming 100% bioavailability
Description: (§2) Pharmacokinetic properties of NTRC 3883-0 were determined in plasma following single oral (p.o.) and i.v. administration to male CD-1 mice (n = 6 per treatment group with three mice sampled per time point), Wistar rats (n = 3), cynomolgus monkey (n = 1) and Beagle dogs (n = 3). Formulations were prepared in DMSO, Kolliphor® EL, 5% D-mannitol in Elix water at a volume ratio of 1:1:8 for i.v. administration, and in 0.5% gelatin, 5% D-mannitol in Elix water for p.o. administration. Plasma samples were collected at eight to eleven time points up to 24 h after administration. Pharmacokinetic properties and required dosing in humans were predicted by allometric scaling by Karin Jorga Life Science Consulting (Basel, Switzerland) ( Figure S2 and Table S2 ).
Table S2. Pharmacokinetic parameters of NTRC 3883-0 observed in mouse, rat, monkey and dog, and predicted for humans using allometric scaling. Data in bold are measured, while data in italics are calculated or predicted (for humans). The clearance (Cl) and volume of distribution at steady state (Vss) in humans are predicted based on extrapolation of the parameters in the four species as shown in Supplementary Figure S2. […] The half-life (t1/2) in humans was predicted as Vss/Cl. […] ND = not determined.

[5] = molecular target: T2, human IDO1 (Homo sapiens, UniProt P14902); assay: human IDO1 biochemical assay (NFK GreenScreen); settings: human IDO1 biochemical assay
T2 construct: Full-length recombinant human and mouse IDO1 were expressed in Escherichia coli with a hexahistidine tag at the N-terminus; hexahistidine (N); made in house; host or cells: Escherichia coli

[6] = molecular target: GL-261-mTDO (Mus musculus, UniProt P48776); assay: cell-based assay, Trp-catabolizing activity in GL-261-mTDO cells; settings: read-out: inhibition GL-261-mTDO
[7] = in vivo pharmacokinetics, monkey; settings: cynomolgus monkey, plasma; for clearance / Vd: intravenous; for Vd: read-out: Vss
Description: as §2

[8] = molecular target: T3, mTDO (Mus musculus, UniProt P48776); assay: mouse TDO biochemical assay (NFK GreenScreen); settings: biochemical; @ 31,600 nM
T3 construct: hexahistidine (C); made in house; host or cells: Escherichia coli
Description: (§3) Full-length recombinant human and mouse IDO1 were expressed in Escherichia coli with a hexahistidine tag at the N-terminus, and purified by affinity chromatography to > 95% purity, as described ([8]). Human and mouse TDO containing a C-terminal hexahistidine tag were analogously expressed and purified to > 95% purity ([8]). The inhibitory activity of compounds was determined with the NFK GreenScreen assay technology under the conditions as described ([8]), except for the reaction buffer for IDO1, which was replaced by 50 mM NaH2PO4, pH 7.0, supplemented with 0.01% Tween-20 and 1% glycerol. Inhibition of the CYP3A4 and CYP2D6 enzymes was determined with the P450-Glo™ Screening System with Luciferin-IPA (Promega, #V9920 and V9890). For determination of IC50 values, the effect of inhibitors was determined in 10-point duplicate dose-response curves. Graphs were fitted to a four-parameter logistics equation in XLfit (ID Business Solutions, Ltd., Guildford, UK) from which IC50 values were calculated.

[9] = plasma protein binding, mouse; type: in vitro ADME
Description: as §1, with “Mouse” for “Human (predicted)”

[10] = test system: CD8-positive T cells co-cultured with HEK-hIDO1 cells; assay: co-culture assay of HEK-hIDO1 cells with PBMCs, CFSE proliferation; type: cell-based, human; settings: 7.5 µM Trp; 10 µM NTRC 3883-0, 1 µM epacadostat; 5 days
[11] = molecular target: T4, human TDO (Homo sapiens, UniProt P48775); assay: human TDO biochemical assay (NFK GreenScreen); settings: biochemical
T4 construct: hexahistidine (C); made in house; host or cells: Escherichia coli
Description: as §3

[12] = molecular target: T5, CYP3A4 (Homo sapiens, UniProt P08684); assay: CYP3A4 inhibition (P450-Glo); type: in vitro ADME; settings: 10 µM
T5 construct: purchased Promega V9920
Description: as §3

T1 sequence (P48775 whole entry): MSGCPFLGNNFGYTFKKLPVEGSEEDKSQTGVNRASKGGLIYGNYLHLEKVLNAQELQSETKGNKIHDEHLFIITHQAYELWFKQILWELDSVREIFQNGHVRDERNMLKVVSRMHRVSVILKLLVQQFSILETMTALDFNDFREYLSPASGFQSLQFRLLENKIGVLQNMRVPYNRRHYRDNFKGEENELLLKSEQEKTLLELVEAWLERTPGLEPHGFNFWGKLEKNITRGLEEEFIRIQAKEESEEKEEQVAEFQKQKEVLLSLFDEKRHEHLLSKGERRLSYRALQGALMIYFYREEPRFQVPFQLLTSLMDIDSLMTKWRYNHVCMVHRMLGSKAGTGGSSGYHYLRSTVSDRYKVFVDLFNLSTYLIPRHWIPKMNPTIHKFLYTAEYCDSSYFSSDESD
T4 sequence (P48775 whole entry): as above
Sequence of GL-261-mTDO (P48776 whole entry): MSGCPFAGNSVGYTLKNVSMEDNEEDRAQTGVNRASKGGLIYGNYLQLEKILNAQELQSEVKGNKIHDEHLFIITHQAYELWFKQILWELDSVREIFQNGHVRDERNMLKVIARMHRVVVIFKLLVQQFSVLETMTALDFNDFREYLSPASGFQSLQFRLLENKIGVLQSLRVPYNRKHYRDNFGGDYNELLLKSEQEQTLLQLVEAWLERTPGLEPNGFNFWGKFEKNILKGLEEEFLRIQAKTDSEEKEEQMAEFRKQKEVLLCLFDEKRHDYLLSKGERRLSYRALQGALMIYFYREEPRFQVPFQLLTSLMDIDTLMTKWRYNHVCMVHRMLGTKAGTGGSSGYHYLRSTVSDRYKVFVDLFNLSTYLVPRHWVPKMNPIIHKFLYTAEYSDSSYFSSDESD
T3 sequence (P48776 whole entry): as above
T2 sequence (P14902 whole entry): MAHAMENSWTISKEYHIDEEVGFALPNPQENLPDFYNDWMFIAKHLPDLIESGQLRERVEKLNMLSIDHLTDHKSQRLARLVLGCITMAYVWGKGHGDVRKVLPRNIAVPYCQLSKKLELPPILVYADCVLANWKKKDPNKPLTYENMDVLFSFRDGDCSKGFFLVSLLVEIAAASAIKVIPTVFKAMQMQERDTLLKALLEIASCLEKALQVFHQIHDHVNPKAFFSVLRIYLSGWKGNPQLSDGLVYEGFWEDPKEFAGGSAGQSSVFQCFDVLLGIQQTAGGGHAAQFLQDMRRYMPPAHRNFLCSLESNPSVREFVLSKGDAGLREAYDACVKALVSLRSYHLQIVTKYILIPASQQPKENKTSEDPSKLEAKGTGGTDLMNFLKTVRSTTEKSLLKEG
T5 sequence (P08684 whole entry): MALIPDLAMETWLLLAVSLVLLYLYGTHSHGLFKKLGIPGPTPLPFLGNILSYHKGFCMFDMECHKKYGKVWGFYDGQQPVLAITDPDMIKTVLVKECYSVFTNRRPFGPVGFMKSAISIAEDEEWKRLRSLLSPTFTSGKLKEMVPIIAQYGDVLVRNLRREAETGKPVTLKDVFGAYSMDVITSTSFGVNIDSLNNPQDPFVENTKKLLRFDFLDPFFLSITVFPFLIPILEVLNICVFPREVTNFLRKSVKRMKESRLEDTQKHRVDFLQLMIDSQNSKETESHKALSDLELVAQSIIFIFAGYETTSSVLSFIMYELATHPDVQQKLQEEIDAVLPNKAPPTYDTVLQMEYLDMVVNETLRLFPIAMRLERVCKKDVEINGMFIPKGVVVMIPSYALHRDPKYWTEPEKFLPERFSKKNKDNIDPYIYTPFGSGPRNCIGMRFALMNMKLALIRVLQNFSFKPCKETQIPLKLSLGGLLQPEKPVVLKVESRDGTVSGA

Structure (SMILES): O=C1CN(C(=O)c2c(F)cccc2F)[C@H](c2cccc(Br)c2)N1O [NTRC 3883-0]
- inhibition at 31.6 µM ([1]; SW48, @ 31,600 nM): < 20%
- effect on Trp-catabolizing activity in SW48 (in words) ([1]; constitutively expresses TDO): no effect
- pIC50 ([2]; IFNγ-stimulated samples, read-out: IC50): 6.58
- pIC50 ([2]; IFNγ-stimulated, read-out: IC50 ASC 009): 6.63
- pIC50 ([2]; IFNγ-stimulated, read-out: IC50 ASC 010): 6.53
- pIC50 ([2]; IFNγ-stimulated, read-out: IC50 ASC 013): 6.63
- pIC50 ([2]; IFNγ-stimulated, read-out: IC50 ASC 031): 6.57
- pIC50 ([2]; IFNγ-stimulated, read-out: IC50 ASC 041): 6.49
- fraction unbound [3]: 0.26
- minimum dose required to reach a target concentration of 1 μM on average during the dosing interval [4]: 1725 mg per day
- pIC50 [5]: 6.91
- inhibition at 31.6 µM [6]: < 20%
- half-life [7]: 2.4 h
- clearance [7]: 37 mL/min/kg
- clearance ([7]; monkey, body weight 3.0 kg): 111 mL/min
- Vd ([7]; monkey, body weight 3.0 kg): 6.74 L
- Vd [7]: 2.25 L/kg
- bioavailability ([7]; po, monkey, p.o. versus i.v., read-out: Bioavailability (F)): 49%
- inhibition at 31.6 µM [8]: < 20%
- fraction unbound [9]: 0.46
- effect on IDO1-mediated inhibition of T cell proliferation (in words) [10]: relieved the inhibitory effect
- inhibition at 31.6 µM ([11]; @ 31,600 nM, read-out: inhibition hTDO): < 20%
- activity on human TDO (in words) ([11]; highest tested concentration 31.6 µM): inactive
- inhibition of CYP3A4 activity [12]: did not inhibit
